Data taken from patent US20250057191A1, “METHODS OF IMPROVING THE NUTRITIONAL STATUS OF IMMUNE STRESSED ANIMALS” (ELANCO US INC., priority 2021, published 2025).
Marks after values point to notes of the source that are not given here.

Key:
[1] = tested on: serum vitamin A; test: Example 4: serum vitamin A in nursery pigs fed full or partial compositions of Combo, weaning to end of nursery; assay type: in vivo
Description: Serum samples were collected from two randomly selected pigs per pen with a total of 4 pigs per treatment at weaning (prior to access of the experimental diets) and at the end of the nursery phase when pigs reached approximately 45 lb of BW. Serum samples were analyzed for vitamin A concentration.

[2] = tested on: nursery pigs; test: Example 4: growth performance and livability of nursery pigs from 8 to 45 lb of BW, full vs. partial components, 65 d
Description: To evaluate the effects of dietary supplementation of the full vs. partial components of a beta-glucan/yeast cell wall/direct fed microbials/L-carnitine combination (Combo), a study was designed to feed the dietary treatments as shown Table 14 to nursery pigs from approximately 8 to 45 lb of BW post-weaning. Specifically, a total of 216 mixed-gender pigs were randomly placed in pens with 27 pigs per pen at weaning. Pens were blocked by weaning weight and pens within block were randomly assigned to one of 4 dietary treatments resulting in two pens per treatment. This study was conducted for 65 days in a 4-phase feeding program immediately after weaning.
Concentration of DFM was no less than 7.5×10^8 cfu/g of the product. Dietary concentrations of beta-glucan, yeast cell wall, DFM and carnitine were the same for each of the treatments if included in the diets.

[3] = end of nursery (approx. 45 lb BW)
[4] = 8 to 45 lb BW, Combo and Yeast/DFM 1.0 lb/ton, L-Carnitine 50 ppm
[5] = Early nursery, Phase 1 to 2, 22 d post-weaning
[6] = Entire nursery, Phase 1 to 4, 65 d post-weaning
[7] = Late nursery, Phase 3 to 4, 43 d post-weaning

Compound: C[N+](C)(C)C[C@H](O)CC(=O)[O-] [carnitine, L-Carnitine]
- percentage increase of serum vitamin A concentration from weaning to the end of nursery ([1]; Combo and Yeast/DFM 1.0 lb/ton, L-Carnitine 50 ppm, FIG. 6): 114%
- serum vitamin A concentration, Max. [1, 3]: 0.198 ppm
- serum vitamin A concentration, Mean [1, 3]: 0.168 ppm
- serum vitamin A concentration, Min. [1, 3]: 0.143 ppm
- serum vitamin A concentration at the end of nursery ([1]; ~45 lb BW, Combo and Yeast/DFM 1.0 lb/ton, L-Carnitine 50 ppm, 4 pigs per treatment): 0.503 ppm
- greater nursery closeout ADG compared to Control [2, 4]: 29%
- greater nursery closeout G/F compared to Control [2, 4]: 29%
- BW end of Phase 2 ([2]; Early nursery, 22 d post-weaning): 13.3 ^b lb
- ADFI ([2]; Early nursery, Phase 1 to 2, 22 d): 0.68 lb/day
- ADG [2, 5]: 0.16 lb/day
- G:F [2, 5]: 0.241 ^b
- Mortality [2, 5]: 31.48%
- ADFI ([2]; Entire nursery, Phase 1 to 4, 65 d): 1.01 ^a lb/day
- ADG [2, 6]: 0.31 ª lb/day
- ADG, change compared to Control [2, 6]: (+29%)
- G/F [2, 6]: 0.282 ^b
- G/F, change compared to Control [2, 6]: (+29%)
- Mortality [2, 6]: 46.30%
- Closeout BW end of Phase 4 ([2]; Late nursery, Phase 3 to 4): 43.2 lb
- ADFI ([2]; Late nursery, Phase 3 to 4, 43 d): 1.32 ª lb/day
- ADG [2, 7]: 0.78 ^c lb/day
- F/G [2, 7]: 1.69
- Mortality [2, 7]: 14.81%
